Among the data in ChEMBL document CHEMBL3392922, “MMV box screening in the Dd2 P. falciparum strain” are IC50 values, retold here.

This experiment has as its system Plasmodium falciparum. As to the kind of experiment: MMV: IC50 determined against P. falciparum Dd2-luc strain using a Malaria Sybr Green I Fluorescence assay. Starting conditions were 1% trophozoite synchronised parasites at 2% haematocrit. Fluorescence detection completed after 48hr incubation at 37 degrees C under 1% O2, 3% CO2 and balance N2. Format: functional, organism-based. To be noted: Dd2, 48 h.
Compound `CCC(c1ccccc1)c1nn2c(-c3cccs3)nnc2s1` (stereo not drawn) returned an IC50 of 338 nM.

Compound `CC1CCCCN1CCCNC(=O)c1ccc2c(c1)sc1nc(-c3ccc(F)cc3)cn12` (stereo not drawn) yielded an IC50 of 559 nM.

Turning to `FC(F)(F)c1cccc(Nc2nc3ccccc3nc2Nc2cccc(C(F)(F)F)c2)c1`, the IC50 was found to be 739 nM.

For the compound `O=C(Nc1ccc(F)c(Cl)c1)Nc1ccc(Cl)c(Cl)c1`, the IC50 came to 1830 nM.

`CC(=O)c1sc(NC(=O)Nc2ccc(C)cc2C)nc1C` showed an IC50 of 1970 nM.

Compound `COc1ccc(CNC2CCN(c3ccc(NC(=O)c4cccc(Cl)c4)cc3)CC2)cc1OC` gave an IC50 of 1190 nM.

In turn, `CCN(Cc1ccccc1)C1CCN(Cc2cc(Br)ccc2O)CC1` registered an IC50 of 603 nM.

The compound `Cc1ccc(Nc2nc(NCCO)c3ccccc3n2)cc1C` gave an IC50 of 987 nM.

The compound `CCCCOc1ccc(C(=O)Nc2cc(C)on2)cc1` gave an IC50 of 783 nM.

In turn, `Oc1ccc(Br)cc1CN1CCN(Cc2cccc(F)c2)CC1` registered an IC50 of 1290 nM.

For `CCCCc1c(C)nc2c(OC)cccc2c1O`, the IC50 worked out at 1410 nM.

Turning to `CCN(CC)CCn1c(=N)n(CC(O)c2ccc(Cl)c(Cl)c2)c2ccccc21` (stereo not drawn), the IC50 turned out to be 404 nM.

Compound `CC(C)(C)c1ccc(C(=O)Nc2nc3ccccc3s2)cc1` had an IC50 of 4150 nM.

Compound `COc1ccc(C2c3ccc4ccccc4c3Oc3ncn(CCCn4ccnc4)c(=N)c32)cc1OC` (stereo not drawn) gave an IC50 of 1230 nM.

In turn, `COc1ccc(-n2ccnc2SCC(=O)Nc2cc(C)ccc2C)c(OC)c1` returned an IC50 of 351 nM.

`CCCc1cc(O)c2c3c(c(=O)oc2c1)CN(C)CC3`: the IC50 was found to be 2570 nM.

`COc1ccc(-c2cc(=O)oc3c4c(ccc23)OCN(Cc2ccc(F)cc2)C4)cc1` gave an IC50 of 851 nM.

Compound `CC(C)(C)CC(C)(C)NCC(O)COc1ccc(Cl)cc1Cl` (stereo not drawn) showed an IC50 of 494 nM.

Turning to `Cc1ccc(CN2CCC(C(=O)Nc3ccc(-c4cc5ccccc5[nH]4)cc3)CC2)o1`, half-maximal inhibition (IC50) was put at 459 nM.

As for `CN(C)CCCNCc1ccc(-c2ccc(F)c(Cl)c2)o1`, the IC50 is 1160 nM.

Turning to `CCn1c(CN2CCN(Cc3ccccc3)CC2)nc2cc(NC(=O)c3cccs3)ccc21`, inhibition was half-maximal at 468 nM (IC50).

`CC(C)(C)CC(C)(C)NCC(O)COc1ccc2c(c1)CCC2` (stereo not drawn) showed an IC50 of 1760 nM.

For the compound `CCc1ccc(Nc2cc(C)c3ccc(O)cc3n2)cc1`, the IC50 came out at 316 nM.

`Nc1nc(Nc2cccc(F)c2)nc2ccccc12` came in with an IC50 of 2370 nM.

The compound `Cc1ccc(C)c(Cn2c(N3CCC(C(=O)NCc4cccs4)CC3)nc3ccccc32)c1` showed an IC50 of 1160 nM.

`Cc1ccc(-c2nc3ccccc3o2)cc1NCc1cc(Cc2ccccc2)ccc1O` came in with an IC50 of 1700 nM.

Consider `CCOC(=O)c1cnc2ccc(Cl)cc2c1NCCCN(C)C`, for which half-maximal inhibition (IC50) was put at 1180 nM.

`CCOC(=O)c1c(NC(=O)c2ccccc2)sc2c(O)c(CN(CC)CC)ccc12` showed a 50% inhibitory concentration (IC50) of 127 nM.

The compound `N=c1n(CCN2CCCCC2)c2ccccc2n1CC(O)c1cccc(Br)c1` (stereo not drawn) came in with an IC50 of 1110 nM.

In the case of `Cc1cc(Nc2cccc(F)c2)nc(NCc2ccccc2)n1`, the IC50 was determined as 544 nM.

`CCn1c(SCC(=O)Nc2cc(C(F)(F)F)ccc2Cl)nc2ccccc2c1=O`: the IC50 was found to be 903 nM.

For `CCOc1ccc2nc(C)cc(Nc3ccc(Br)cc3)c2c1`, the IC50 was determined as 791 nM.

In turn, `CCOC(=O)C1=CN(C)C=C(C(=O)OCC)C1c1cc(Br)c(OCC)c(OC)c1` gave a half-inhibitory concentration (IC50) of 458 nM.

`COc1cccc(NC(=O)Cn2c(C)c(C#N)c3ccccc32)c1` yielded an IC50 of 1270 nM.

`C=C(C)CCC(C)N1CCC(N2CCC(C(=O)NCCc3ccccc3)CC2)CC1` (stereo not drawn): the half-inhibitory concentration (IC50) was determined as 1460 nM.

For `CC(C)CNC(=O)c1c(N)n(CCc2ccccc2F)c2nc3ccccc3nc12`, the midpoint of inhibition, the IC50, lay at 680 nM.

For the compound `COc1ccc(-c2c(C)nn3c(N)c(C#N)cnc23)cc1OC`, the IC50 came out at 305 nM.

`Cc1cc(N2CCCC2)nc(Nc2ccc(NC(=O)CCc3ccccc3)cc2)n1` had an IC50 of 1260 nM.

`CC(C)(C)c1ccc(O)c(CNC2CCCCC2)c1` registered an IC50 of 181 nM.

In turn, `COc1cccc(NC(=O)[C@H](C(C)C)n2c(=O)[nH]c3ccccc3c2=O)c1` showed an IC50 of 158 nM.

On to `CCCC(c1nnnn1C1CCCCC1)N1CCN(C(=O)c2ccco2)CC1` (stereo not drawn), for which the IC50 came out at 518 nM.

The compound `Cc1cccc(N2C(=O)C3C(C2=O)C2(c4ccccc4)C(=O)C3(c3ccccc3)C(c3ccc4c(c3)OCO4)=C2c2ccc3c(c2)OCO3)c1` (stereo not drawn) registered a half-maximal inhibitory concentration (IC50) of 1700 nM.

As to `Cc1cc(C)c2nc(N3CCC(C(=O)NCCCN4CCC(N5CCCCC5)CC4)CC3)sc2c1`, the IC50 worked out at 1280 nM.

Compound `Cc1[nH]c(-c2ccc(F)cc2)cc1C(=O)NC1CCN(Cc2ccccc2)CC1` came in with an IC50 of 1670 nM.

Regarding `Cc1cc(NCCN2CCCCC2)c2ccc3ccccc3c2n1`, the IC50 was 309 nM.

`CCOc1ccc(C2N(C)c3ccccc3N2C)cc1`: the IC50 amounted to 904 nM.

As to `CCN1CCN(c2c(C(=O)c3ccccc3)cnc3cc(OC)c(OC)cc23)CC1`, the IC50 is 3340 nM.

As to `COc1ccccc1N1C(=N)SC(=Cc2ccc(OCc3ccccc3F)cc2)C1=O`, 809 nM corresponded to half-maximal inhibition (IC50).

Compound `O=C(Nc1ccc(Br)cc1)Nc1cccc(Cl)c1` showed an IC50 of 3590 nM.

`CCOc1ccc2nc(C)cc(Nc3ccc(N(C)C)cc3)c2c1` returned an IC50 of 998 nM.

The compound `CC(=O)NCCc1nc2ccccc2n1Cc1ccc(C(C)C)cc1` returned an IC50 of 1490 nM.

Take `CCc1ccc(CNCC(O)c2ccccc2)cc1` (stereo not drawn): it took 1870 nM to reach half-maximal inhibition (IC50).

For the compound `COCCN(C(=O)Cc1cccs1)C(C(=O)NCc1ccc(OC)cc1)c1ccc(C(C)C)cc1` (stereo not drawn), the midpoint of inhibition, the IC50, lay at 975 nM.

The compound `CC1(c2ccccc2)Nc2ccccc2-c2nc3ccccc3n21` (stereo not drawn) registered a half-maximal inhibitory concentration (IC50) of 263 nM.

Regarding `CCCCCn1c(=N)n(CC(O)COc2cccc(C)c2)c2ccccc21` (stereo not drawn), the IC50 worked out at 2350 nM.

The compound `CCCCNc1nc(NC(C)(C)C)nc(NC(C)(C)C)n1` yielded an IC50 of 893 nM.

`CCn1nc(-c2ccc(C(=O)OC)cc2)nc2c(=O)n(C)c(=O)nc1-2`: the IC50 stood at 691 nM.

In the case of `CCOc1ccc(CN2CCN(CC(O)COc3ccc(OCC(O)CN4CCN(Cc5ccc(OCC)cc5)CC4)cc3)CC2)cc1` (stereo not drawn), the concentration for half-maximal inhibition (IC50) was found to be 948 nM.

In turn, `Cc1cc(Nc2ccc(Cl)cc2)n2nc(C(F)(F)F)nc2n1` showed an IC50 of 302 nM.

As for `Cc1cccc(-n2ncc3c(O)nc(-n4nc(C)cc4NC(=O)c4cc5ccccc5o4)nc32)c1`, the IC50 worked out at 994 nM.

`COc1ccc(CCN2C(=O)c3[nH]nc(-c4cc(Cl)c(C)cc4O)c3C2c2ccccc2F)cc1` (stereo not drawn) came in with an IC50 of 3190 nM.

As to `Oc1ccc(Br)cc1CN1CCN(Cc2ccc(Cl)cc2)CC1`, the IC50 was determined as 1520 nM.

`CN(C)c1ccc(N2C(N)=NC(N)=NC2(C)C)cc1` displayed a 50% inhibitory concentration (IC50) of 158 nM.

As to `FC(F)(F)c1ccc(Nc2nnnc3ccccc23)cc1`, the IC50 amounted to 3990 nM.

In turn, `CCCCC(O)(c1ccc(Cl)cc1)C(CN1CCOCC1)c1ccc(Cl)cc1` (stereo not drawn) showed an IC50 of 3570 nM.

For `COc1ccc(C(=O)C2CC2c2ccc(Cl)cc2)cc1` (stereo not drawn), the IC50 was found to be 3290 nM.

`COc1cc(-c2nc(-c3ccc(Sc4ccccc4)cc3)c(-c3ccccc3)[nH]2)cc(OC)c1O` came in with an IC50 of 734 nM.

With `CCOc1ccc(-c2nc(NC(=O)c3cccc(S(C)(=O)=O)c3)sc2C)cc1`, it took 1440 nM to reach half-maximal inhibition (IC50).
